Data on 50 compounds can be found in ChEMBL document CHEMBL3637782, “GSK Tres Cantos Follow-up TB Screening Data” (2016).

In the experiment the test system is Mycobacterium tuberculosis variant bovis. The experiment is described as follows: GSK_TB: Effect of compound calculated as % inhibition at single shot or pIC50 ( pIC50 ATP assay M.bovis). The class given is functional, organism-based. To be noted: BCG / Pasteur.

pIC50: −log10 of the molar value.

`NC(=O)c1ccc(CN(C2CC2)S(=O)(=O)c2ccccc2F)cc1`: the pIC50 (as a rule, the negative decadic logarithm of the IC50, by convention in mol/L) was 4.90.
In the case of `CNc1nc(SC)nnc1-c1cccc(Cl)c1Cl` it was 4.90; in that of `Cc1ccc2c(c1)c(=O)cc(C(F)(F)F)n2CCNC(=O)c1ccccn1`, 5.20.
As to `COC(=O)c1ccc(Oc2ccc(-c3csc(C)n3)cc2F)nn1`, the pIC50 was 4.70.
In the case of `O=C(NCc1ccco1)N1CCN(Cc2ccc(Cl)s2)CC1` it was 5.90.
In the case of `NCC(c1cccs1)S(=O)(=O)c1ccccc1` (stereo not given) it was 5.30; in that of `c1ccc(-c2ncc(-c3ccc(OCCCn4ccnc4)cc3)s2)cc1`, 5.10; in that of `Cn1cc(CCNC(=O)Nc2ccc(N3CCCCC3)nc2)cn1`, 4.70.
In the case of `CC(C)N(C(=O)CNc1ccccc1Nc1ccccc1)c1ccccc1` it was 5.20.
Regarding `CCCC/C=C/c1cc2ccncc2cc1OC1CCNCC1`, the pIC50 is 5.60.
In the case of `CCOCn1ccc(NS(=O)(=O)c2ccc(N)cc2)nc1=O` it was 5.50; in that of `FC(F)(F)c1nnc2ccc(Sc3nnc(-c4ccco4)o3)nn12`, 5.50; in that of `COc1ccc(Nc2ncccc2N)cc1`, 6.10.
Consider `O=C(NCc1ccoc1)N1CCN(Cc2ccc3c(c2)OCO3)CC1`, for which the pIC50 was 5.90.
With `Nc1ccccc1Nc1ccc(Cl)cc1` the figure was 7.00; with `CC(C)Oc1ccc(-c2nnc(-c3ccc4c(c3)CCNCC4)s2)cc1Cl`, 5.60; with `CC(C)c1noc(N2CCC([C@H](C)Oc3cnc(-c4ccc(S(C)(=O)=O)c(F)c4)cn3)CC2)n1`, 5.20.
Take `COc1ccc(Nc2nc(N[C@@H]3CCNC3)nc3cc[nH]c(=O)c23)cc1NC(=O)c1ccccc1`: the pIC50 was 5.30.
`N#Cc1ncn(-c2ccc3nnc(C(F)(F)F)n3n2)n1`: the pIC50 was 5.10.
On to `Fc1ccc(Cc2nnc(-c3ccnc(Nc4ccc(OCCN5CCOCC5)cc4)n3)[nH]2)cc1`, for which the pIC50 is 5.10.
With `COc1ccc(CN2CCN(C(=O)/C=C/c3csc(C)n3)CC2)cc1`, the pIC50 was 5.30.
In the case of `O=[N+]([O-])c1cnc(-c2nc3ccccc3[nH]2)s1` it was 5.40; in that of `O=S(=O)(NCc1ccccc1)c1ccc(-c2cc3ccncc3cc2OC2CCNCC2)s1`, 5.70.
Turning to `N#Cc1cc(C(F)(F)F)c2nc(C(=O)NCc3cccs3)c(Cl)n2c1`, the pIC50 is 5.20.
With `Cc1nc(Nc2cnn(Cc3ccccc3F)c2)c2nn(C)c(C)c2n1`, the pIC50 was 5.60.
`Nc1ccc(S(=O)(=O)Nc2ccnn2-c2ccccc2)cc1` [SULFAPHENAZOLE]: the pIC50 was 5.00.
In the case of `Cc1ccc2oc(SCC(=O)Nc3nccs3)nc2n1` it was 5.20; in that of `CCOc1cc2ccccc2cc1C(=O)NC`, 5.20; in that of `O=C(Nc1nc(-c2ccccn2)cs1)N1CCC(Cc2ccc(F)cc2)CC1`, 5.40.
`NC(=O)c1cc2ccc(CC(=O)c3cccs3)cc2s1`: the pIC50 was 4.80.
In the case of `Clc1nnc(N2CCCC2)c2ccccc12` it was 5.50; in that of `Nc1ccc(C(O)CNCCc2ccccc2)cc1O` (stereo not given), 5.70; in that of `COc1ccc2nccc(NC(=O)C3CCN(CCc4ccc(Cl)cc4)CC3)c2n1`, 5.30.
On to `O=C(O)CCc1nc2ccccc2oc1=O`, for which the pIC50 was 5.10.
As to `COc1ccc(CCNC(=O)C2(n3cnnn3)CCCCC2)cc1`, the pIC50 was 5.40.
With `CNc1snc(C)c1C(=O)NCCOc1ccc(OC)cc1` the figure was 5.50.
Regarding `Fc1cccc(Oc2cc(C3CCCNC3)nc(-c3ccncc3)n2)c1` (stereo not given), the pIC50 is 4.90.
With `FC(F)(F)Oc1ccc(-c2cc3ccncc3cc2OC2CCNCC2)cc1` the figure was 5.50; with `O=C(NCCO)c1c(O)c2ncc(Cc3ccc(F)cc3C(F)(F)F)cc2[nH]c1=O`, 5.30.
In the case of `O=C(Nc1nc2c(s1)CCCc1cccnc1-2)c1ccccc1C(F)(F)F`, the negative logarithm of the IC50 (pIC50) is 5.60.
For `Cc1c(C(=O)NCCOc2ccccc2)[nH]c2c1C(=O)CCC2`, the pIC50 is 5.10.
Turning to `COc1ccc(-c2nnc3sc(Cc4csc(C)n4)nn23)cc1`, the pIC50 is 5.30.
Turning to `O=C(NCc1ccco1)N1CCN(Cc2ccc3c(c2)CCO3)CC1`, the pIC50 was 5.60.
Consider `CCCCNCC1COc2ccc(OC)cc2C1=O` (stereo not given), for which the pIC50 was 5.20.
As to `CN(Cc1ccc(Cl)cc1)C(=O)CCc1nc2ccccc2oc1=O`, the pIC50 was 5.40.
In the case of `CCCCc1ccc(C(=O)Nc2nnc(S(=O)(=O)CCCC)s2)nc1` it was 5.10; in that of `O=C(NCc1ccco1)N1CCN(Cc2cccs2)CC1`, 5.10.
With `NS(=O)(=O)c1ccc(Nc2cnc3ccccc3n2)cc1` the figure was 5.20; with `CC1CC1c1ccc(CN2CCc3nc(Nc4ccccc4)sc3CC2)o1` (stereo not given), 5.20; with `N#Cc1cccc(-c2ccc(NC[C@H]3CC[C@]4(CC3)CN(c3cccnn3)C(=O)O4)nc2)c1`, 4.60.
